Source: patent publication US12146196B2, “C-RAF mutants that confer resistance to RAF inhibitors” (DANA-FARBER CANCER INSTITUTE, INC., priority 2012, dated 2024)

How the values were obtained:
[1] = tested on: pMek1/2, pErk1/2; test: Immunoblot of pMek/pErk in A375 cells expressing C-RAF alleles; type: cell-based, human
Experimental: (§1) Samples were extracted after washing twice with PBS and lysed with 150 mM NaCl, 50 mM Tris pH 7.5, 1 mM EDTA, PMSF, Sodium Fluoride, Sodium Orthovanadate and protease inhibitor cocktail in the presence of 1% NP-40. The protein content was estimated with protein assay reagent (Bio-Rad) according to the manufacturer's instructions. Equal amounts of whole cell lysates were loaded onto and separated by 8-16% SDS-PAGE ready-made gels. Proteins were transferred to polyvinylidene difluoride membranes in a Trans-Blot apparatus. Membranes were blocked with 5% skim milk in TBS containing 0.1% Tween 20 for 1 h at room temperature or overnight at 4° C. Membranes were then incubated with monoclonal or polyclonal antibody raised against the protein of interest for 1 h at room temperature or overnight at 4° C. followed by three washes with TBS containing 0.1% Tween 20. The immunoreactivity of the primary antibodies C-RAF, S259C-RAF, S338C-RAF, S621C-RAF, PERK, ERK, pMEK, MEK, 14-3-3ζ Flag (Cell Signaling), B-RAF (Santa Cruz Biotechnology) and actin (Sigma) was visualized with a secondary anti-rabbit (BD Transduction Laboratories) or anti-mouse (Santa Cruz Biotechnology) antibodies conjugated with horseradish peroxidase and subsequent development with ECL Plus (Amersham Biosciences) and autoradiography on X-OMAR TAR films. The bands were scanned and quantified by the Gel Doc system using the Quantity One software.

[2] = tested on: A375 cells expressing C-RAF resistance allele S257P; test: Pharmacologic growth inhibition assay, S257P cells; type: cell-based, human; conditions: for increase of GI50 values compared to the WT: A375 expressing C-RAF S257P vs WT-C-RAF
Experimental: (§2) GI50 values were calculated by determining the slope of the line connecting the data points that flanked the 50% point.

[3] = tested on: A375 cells expressing C-RAF resistance allele P261T; test: Pharmacologic growth inhibition assay, P261T cells; type: cell-based, human; conditions: for increase of GI50 values compared to the WT: A375 expressing C-RAF P261T vs WT-C-RAF
Experimental: as §2

[4] = tested on: A375 cells expressing C-RAF resistance allele G361A; test: Pharmacologic growth inhibition assay, G361A cells; type: cell-based, human; conditions: A375 expressing C-RAF G361A vs WT-C-RAF
Experimental: as §2

[5] = tested on: C-RAF (S259, S338, S621); test: Immunoblot of C-RAF phosphorylation sites S259, S338, S621; type: cell-based, human; conditions: for S259 phosphorylation: A375 expressing resistance mutants
Experimental: as §1

[6] = tested on: A375 cells expressing WT-C-RAF; test: Pharmacologic growth inhibition assay, WT-C-RAF cells; conditions: Homo sapiens, A-375, 96 h
[7] = tested on: C-RAF resistance mutants; test: C-RAF kinase assay (293T); type: biochemical, human; conditions: 293T cells treated with 2 μM vemurafenib prior to assay; all resistance alleles examined
Experimental: The 293T cells (70% confluent) were transfected with 6 μg pc-DNA with His or V5 tag towards the C-terminal containing C-RAF-WT and C-RAF variant alleles. Cells were treated with vemurafenib (Allele Biotech) for 1 h and 48 h post-transfection, lysates were extracted by general protocol. Immunoprecipitation using cobalt beads was performed […] for 1 hr at 4° C. […] The phosphorylated MEK product was detected by immunostaining using a p-MEK antibody (Cell Signaling Technology), and relative p-MEK signals were quantified using densitometry, normalized to the amount of input C-RAF, and compared to C-RAF-WT as a reference.

[8] = tested on: C-RAF resistance mutants; test: C-RAF kinase assay (A375); type: biochemical, human; conditions: A375 expressing S257P, P261T and G361A; exposure to 2 μM vemurafenib
Experimental: (§3) A375 cells infected with WT and mutant C-RAF alleles were cultured in the absence and presence of PLX4032 (Allele Biotech) for 16 h. Lysates were prepared with 150 mM NaCl, 50 mM Tris pH 7.5, 1 mM EDTA, PMSF, Sodium Fluoride, Sodium Orthovanadate and protease inhibitor cocktail in the presence of 1% NP-40. Immunoprecipitation with C-RAF antibody was performed overnight and bound beads were washed three times with lysis buffer, followed by kinase buffer (1×). […] The phosphorylated substrate MEK was detected by immunoblotting.

[9] = target: T1, C-RAF resistance mutants (Homo sapiens, UniProt P04049, G361A); test: C-RAF kinase assay (A375); type: biochemical; conditions: A375 expressing G361A; Vemurafenib 16 h
T1 construct: expressed in transfected cells
Experimental: as §3

[10] = tested on: C-RAF homodimer; test: C-RAF homodimerization, Ni2+ bead pull-down of His-tagged C-RAF, anti-Flag immunoblot; type: cell-based, human; conditions: 293T cells expressing C-RAF resistance mutants; 2 μM, 1 h
Experimental: (A) 293T cells co-expressing His/V5-tagged and Flag-tagged C-RAF resistance mutants for 48 h were immunoprecipitated with Nickel (see Methods) to pull down His-tagged C-RAF, and Flag tagged C-RAF was assessed by immunoblotting. Input lysate was also assessed using antibodies that detected Flag-C-RAF, V5-C-RAF, total C-RAF, p-MEK, p-ERK and total ERK. (B) 293T cells co-expressing His/V5-tagged and Flag-tagged C-RAF resistance mutants were treated with either vehicle (DMSO) or 2 μM of vemurafenib for 1 h, and His/V5-tagged C-RAFwas immunoprecipitated as in (A) above. Input lysates were immunoblotted using antibodies recognizing C-RAF (S338), p-MEK, p-ERK, and actin (loading control). (C) In vitro C-Raf kinase activity was measured in cell extracts derived from 293T cells transiently expressing Flag-tagged empty vector (“C”), wild type C-RAF (“WT”), and C-RAF harboring the resistance mutants S257P, P261T, G361A and E478K. Assays were performed in the presence or absence of 2 μM vemurafenib (see Methods). […] (D) In vitro C-Raf kinase activity was measured in cell extracts derived from A375 cells (B-RAF^V600E) (“C”) and A375 stably expressing wild type C-RAF (“WT”), and C-RAF harboring the resistance mutants S257P, P261T, and G361A in the presence and absence of 2 μM vemurafenib. […]

[11] = target: T2, 14-3-3/C-RAF interaction (Homo sapiens, UniProt P04049); test: Immunoprecipitation with C-RAF, bound 14-3-3ζ; type: cell-based; conditions: A375 cells (BRAF V600E)
T2 construct: expressed in transfected cells; 14-3-3 ζ endogenous
Experimental: (§4) (A) 293/T cells transiently expressing the indicated C-RAF resistance mutants in the absence (−) or presence (+) of 2 μM vemurafenib for 1 h were immunoprecipitated with C-RAF and levels of bound protein (B-RAF and 14-3-3 ζ) (upper panels) was assessed by immunoblotting. Input lysate (lower panels) show 14-3-3 ζ, B-RAF, C-RAF, pMek1/2, pErk1/2, Mek, S338 C-RAF and actin. Results are representative of more than two independent experiments. (B) A375 cells stably expressing the indicated C-RAF resistance mutants in the presence and absence of 2 μM vemurafenib for 16 h were immunoprecipitated with C-RAF and levels of bound protein (B-RAF and 14-3-3 ζ) (upper panels) was assessed by immunoblotting. Input lysate was blotted for the same as in FIG. 7A. Results are representative of more than two independent experiments.
(§5) For immunoprecipitation with C-RAF antibody (BD Biosciences) protein G-Sepharose slurry (Thermo Scientific) was washed with 1×PBS and incubated with C-RAF antibody (BD Biosciences) or normal mouse IgG (control) for 1 h at 4° C. After three washes with lysis buffer, the beads were incubated with whole cell lysates (0.5 mg of total protein) for 2 h and then washed three times with lysis buffer. The proteins were then eluted by boiling in 1×SDS-sample buffer.

[12] = tested on: 14-3-3/C-RAF interaction; test: Immunoprecipitation with C-RAF, bound 14-3-3ζ; type: cell-based, human
Experimental: as §4, §5

[13] = tested on: B-RAF/C-RAF heterodimerization; test: Immunoprecipitation with C-RAF, bound B-RAF; type: cell-based, human
[14] = target: B-RAF/C-RAF heterodimerization (Homo sapiens, UniProt P04049+P15056, V600E); test: Immunoprecipitation with C-RAF, bound B-RAF; type: cell-based; conditions: A375 melanoma cells, wild-type C-RAF; 2 μM
[15] = tested on: p-MEK, p-ERK; test: Immunoblot of MEK/ERK signaling in 293T cells expressing C-RAF resistance mutants; type: cell-based, human; conditions: 2 μM
Experimental: as §1, with “The immunoreactivity of the primary antibodies C-RAF, S259C-RAF, S338C-RAF, S621C-RAF, PERK, ERK, pMEK, MEK, 14-3-3ζ Flag (Cell Signaling), B-RAF (Santa Cruz Biotechnology) and actin (Sigma) was visualized with a secondary anti-rabbit (BD Transduction Laboratories) or anti-mouse (Santa Cruz Biotechnology) antibodies conjugated with horseradish peroxidase and subsequent development with ECL Plus (Amersham Biosciences) and autoradiography on X-OMAR TAR films.” left out

[16] = A375 expressing S257P, P261T and G361A, PLX4720 2 μM 16 h

Compound: COC(=O)N[C@@H](C)CNc1nccc(-c2cn(C(C)C)nc2-c2cc(Cl)cc(NS(C)(=O)=O)c2F)n1 [(S)-methyl 1-(4-(3-(5-chloro-2-fluoro-3-(methylsulfonamido)phenyl)-1-isopropyl-1H-pyrazol-4-yl)pyrimidin-2-ylamino)propan-2-ylcarbamate]
- biochemical resistance (pMek/pErk) ([1]; 1 μM, A375 expressing C-RAF resistance mutants): conferred resistance
- increase of GI50 values compared to the WT [2]: ~10,000 fold
- increase of GI50 values compared to the WT [3]: ~30,000 fold
- increase of GI50 values / resistance compared to the WT [4]: 20 fold

Compound: Cn1cnc2c(F)c(Nc3ccc(Br)cc3Cl)c(C(=O)NOCCO)cc21 [AZD6244]
- pErk ([1]; A375 expressing resistance mutants, AZD6244 1 μM 16 h): diminishing levels
- S259 phosphorylation ([5]; AZD6244 1 μM 16 h): attenuated

Compound: CCCS(=O)(=O)Nc1ccc(F)c(C(=O)c2c[nH]c3ncc(Cl)cc23)c1F [PLX4720]
- Mek phosphorylation (pMek) and Erk phosphorylation (pErk) ([1]; 2 μM, A375 cells and WT-C-RAF expressing cells): attenuated
- pMek and pErk ([1]; 2 μM, A375 expressing C-RAF resistance alleles): sustained pMek and pErk
- p-MEK ([1]; A375 expressing CRAF G361A, high PLX4720 concentrations): substantial “paradoxical” activation
- increase of GI50 values compared to the WT [2]: ~100 fold
- increase of GI50 values compared to the WT [3]: ~100 fold
- increase of GI50 values / resistance compared to the WT [4]: 30 fold
- phosphorylation of S338 [5, 16]: induced
- phosphorylation of S621 [5, 16]: modest increase
- S259 phosphorylation ([5]; PLX4720): induced
- GI50 [6]: 400 nM

Compound: CCCS(=O)(=O)Nc1ccc(F)c(C(=O)c2c[nH]c3ncc(-c4ccc(Cl)cc4)cc23)c1F [Vemurafenib]
- C-RAF kinase activity (p-MEK) [7]: marked up-regulation
- C-RAF kinase activity [8]: further augmented
- C-RAF kinase activity in presence of the drug [9]: even higher kinase activity
- resistance in growth inhibition ([2]; A375 expressing C-RAF S257P): increased resistance
- resistance in growth inhibition ([3]; A375 expressing C-RAF P261T): increased resistance
- increase of GI50 values / resistance compared to the WT [4]: 50 fold
- C-RAF dimerization [10]: sustained but not further enhanced
- 14-3-3ζ binding to wild-type C-RAF [11]: modestly decreased
- 14-3-3/C-RAF interactions ([12]; 293/T cells): enhanced
- 14-3-3ζ binding to C-RAF S257P, P261T and G361A mutants ([12]; A375 cells (BRAF V600E)): no effect
- C-RAF activation (S338 phosphorylation) ([5]; 293T cells expressing C-RAF resistance mutants, 2 μM, 1 h): robustly induced
- GI50 [6]: 400 nM
- B-RAF/C-RAF heterodimerization ([13]; 293/T cells ectopically expressing wild-type C-RAF, 2 μM): induced
- B-RAF heterodimerization ([13]; A375 cells expressing the most robust C-RAF resistance mutants, in the presence of drug): sustained
- B-RAF/C-RAF heterodimerization [14]: abrogated
- MEK/ERK activation ([15]; 293/T cells, C-RAF G361A co-expressed with dimerization-deficient R401H double mutant, 1 hr): further induced
- downstream MEK/ERK signaling ([15]; 293T cells expressing C-RAF resistance mutants, 1 h): robustly induced
